Experiment: State (liquid or solid) at ambient temperature by visual observation
Format: physicochemical
Conditions: for liquid or solid at ambient temperature: ambient temperature (about 15-25° C.), visual observation; for State at standard temperature: Table 1
Procedure: The compounds (1)-(3) of the present invention are desirably liquid at ambient temperature. In the present specification, the ambient temperature refers to the ambient temperature (15° C.-25° C.) defined in the Japanese Pharmacopoeia, 16th edition, General Rules, the Japanese Pharmacopoeia, 17th edition, General Rules. In addition, “about” here means ±1° C.
Whether the compounds of Examples 1 and 2 and HYA of Comparative Example are liquid or solid at ambient temperature (about 15-25° C.) was confirmed by visual observation.

liquid or solid at ambient temperature | State at standard temperature | SMILES
liquid |  | CCCCC/C=C\CC(O)CCCCCCCCC(=O)OCCC (stereo not drawn) [Example 2, propyl 10-hydroxy-cis-12-octadecenoate]
liquid | liquid | CCCCC/C=C\CC(O)CCCCCCCCC(=O)OCC (stereo not drawn) [Example 1, ethyl 10-hydroxy-cis-12-octadecenoate]
solid | solid | CCCCC/C=C\CC(O)CCCCCCCCC(=O)O (stereo not drawn) [HYA, 10-hydroxy-cis-12-octadecenoic acid]

— patent publication US10285966B2, “10-hydroxy-cis-12-octadecenoic acid alkyl ester and use thereof” (NITTO PHARMACEUTICAL INDUSTRIES, LTD., priority 2015, dated 2019)
